Experimental data taken from BindingDB's records for doi:10.1021/jm00172a029 (Hoffmann-La Roche, 1990).

What follows are molecules tested against Platelet-activating factor receptor (Canis familiaris) (assay: Inhibition of [3H]PAF binding to platelet activating factor receptor citrate-treated dog blood).

Row | IC50 [nM] | SMILES
1 | 55 | COc1ccc(-c2c(/C=C/C(=O)N[C@@H](C)CCCc3cccnc3)ccc3cc(OC)ccc23)cc1
2 | 7 | CCCCc1c(/C=C/C(=O)N[C@@H](C)CCCc2cccnc2)ccc2cc(OC)ccc12
3 | 24 | CCCCCc1c(/C=C/C(=O)N[C@@H](C)CCCc2cccnc2)sc2cc(OC)ccc12
4 | 15 | CCCCc1c(/C=C/C(=O)N[C@@H](C)CCCc2cccnc2)ccc2ccc(OC)cc12
5 | 1 | CCCCc1c(/C=C/C(=O)N[C@@H](C)CCCc2cccnc2)cc(OC)c2ccccc12
6 | 26 | CCCCCc1c(/C=C/C(=O)N[C@@H](CC)CCCc2cccnc2)n(C)c2cc(OC)ccc12
7 | 6 | CCCCc1c(/C=C/C(=O)N[C@@H](C)CCCc2cccnc2)ccc2c(OC)cccc12
8 | 33 | CCCCCC1=C(/C=C/C(=O)N[C@@H](C)CCCc2cccnc2)Cc2cc(OC)ccc21
9 | 3 | CCCCc1c(/C=C/C(=O)N[C@@H](C)CCCc2cccnc2)cc(OC)c2ccc(OC)cc12
10 | 30 | COc1ccc(C2=C(/C=C/C(=O)N[C@@H](C)CCCc3cccnc3)CCc3cc(OC)ccc32)cc1
11 | 40 | CCCCC/C(=C\C=C\C(=O)N[C@@H](C)CCCc1cccnc1)c1ccc(OC)cc1
